According to patent publication US8729053B2, “Nuclear factor kappa B pathway inhibitor composition and use of same” (The United States of America, as represented by the …, priority 2008, dated 2014):
Counter-ions that a name gives are not always drawn.

Target: T1, IKKβ (Homo sapiens, UniProt O14920)
T1 construct: purchased Calbiochem
T1 sequence (O14920 1-756): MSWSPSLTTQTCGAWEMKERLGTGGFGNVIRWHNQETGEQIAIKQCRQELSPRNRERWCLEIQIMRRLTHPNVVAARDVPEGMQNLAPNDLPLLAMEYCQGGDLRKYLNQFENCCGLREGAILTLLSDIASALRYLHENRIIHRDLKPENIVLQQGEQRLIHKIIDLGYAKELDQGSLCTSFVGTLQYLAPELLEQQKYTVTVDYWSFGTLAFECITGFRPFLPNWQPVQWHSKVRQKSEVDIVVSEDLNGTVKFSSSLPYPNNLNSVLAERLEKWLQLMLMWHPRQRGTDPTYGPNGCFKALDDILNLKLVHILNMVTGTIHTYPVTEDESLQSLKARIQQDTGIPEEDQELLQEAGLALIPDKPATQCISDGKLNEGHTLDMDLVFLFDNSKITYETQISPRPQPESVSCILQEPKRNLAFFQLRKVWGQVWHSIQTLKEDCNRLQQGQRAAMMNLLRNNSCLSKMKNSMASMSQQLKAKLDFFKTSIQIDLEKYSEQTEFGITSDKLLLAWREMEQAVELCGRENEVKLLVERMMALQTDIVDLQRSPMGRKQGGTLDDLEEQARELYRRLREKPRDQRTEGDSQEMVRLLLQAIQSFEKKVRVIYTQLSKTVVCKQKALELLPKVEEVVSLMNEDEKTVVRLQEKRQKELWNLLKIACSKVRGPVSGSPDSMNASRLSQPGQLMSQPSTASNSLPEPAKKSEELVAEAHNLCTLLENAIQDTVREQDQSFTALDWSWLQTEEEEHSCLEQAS
Experiment: Off-chip incubation mobility-shift kinase assay, IKKβ
Assay type: biochemical
Protocol: In an attempt to determine whether compound I interferes with ATP binding to the catalytic site, the activity of compound I was measured with fully activated, phosphorylated IKKα or IKKβ. […] However, whether this compound interacts outside of the ATP binding pocket of IKK as an ATP non-competitive inhibitor similar to BMS-345541 is unknown. […] Luciferase activities with TPA induction alone were set at 100% and the relative activities with TPA in the presence of compounds are shown.

Cc1cc(N)ccc1N=Nc1ccc(S(=O)(=O)CCOS(=O)(=O)O)cc1 [compound I, 2-(4-((4-amino-2-methylphenyl)diazenyl)phenylsulfonyl)ethyl hydrogen sulfate]
Binding to the ATP binding pocket of IKKβ: no activity | Inhibition of IKKβ activity, phosphorylation of a peptide substrate (fully activated, phosphorylated IKKβ, 1.25, 2.50, 5.00, and 10.00 μM): does not inhibit
